Columns and labels:
[1] = biological target: His-tagged CRBN-DDB1 complex (Homo sapiens, UniProt Q96SW2); test: Time-Resolved Fluorescence Resonance Energy Transfer (TR-FRET / HTRF) CRBN binding assay, displacement of Cy5-labeled thalidomide; conditions: His-CRBN-DDB1, Cy5-thalidomide 8 nM, 1 hour room temperature
CRBN-DDB1 = CRBN-DDB1 (Homo sapiens, UniProt Q96SW2); test: Fluorescence Polarization (FP) CRBN binding assay, probe TM-493 (FAM-BB-100); conditions: CRBN-DDB1, TM-493 probe, 60 min room temperature
Procedure: Fluorescence Polarization (FP) Assay
Materials: PerkinElmer EnVision 2104 Multilabel Reader, PerkinElmer FITC FP dual emission Label 2100-8060, Corning 384-well microplate #4514, V-CMR-TM-493 (FAM-BB-100), and CRBN-DDB1-180605.
Methods: Dilution buffer (50 mM HEPES-Na pH 7.5, 100 mM NaCl, 2 mM DTT, and 0.005% Tween-20) and compound DMSO dilutions were prepared. 4× compound working solutions were made with 8% DMSO (4×) and 13.8 μL/well of dilution buffer was placed in a new 96-well plate and 1.2 μL/well of above compound DMSO dilutions were added to the wells. 40 nM (4×) TM-493 in dilution buffer was prepared from a 10 μM DMSO stock and 15 μL per well of the TM-493 working solution was transferred into the compound working solution. 160 nM (2×) CRBN-DDB1 working solution was prepared with Dilution Buffer and 10 μL/well were added into a 384-well plate. 10 μL per well of the TM-493/compound mixture were transferred into the 384-well plate. The “positive control” was sample without protein and compound in 2% DMSO. After incubation at room temperature for 60 min, data was collected and read on data on an EnVision with the following setting: Excitation Light (%): 100; Measurement Height: 9.4; G-Factor: 1; Detector Gain 1: 200; Detector Gain 2: 200; Flash Number: 100. Data was processed using GraphPad Prism 7.0
The compound numbers correspond to the compound numbers in Table 1.

CRBN-DDB1, sequence (Q96SW2 whole entry): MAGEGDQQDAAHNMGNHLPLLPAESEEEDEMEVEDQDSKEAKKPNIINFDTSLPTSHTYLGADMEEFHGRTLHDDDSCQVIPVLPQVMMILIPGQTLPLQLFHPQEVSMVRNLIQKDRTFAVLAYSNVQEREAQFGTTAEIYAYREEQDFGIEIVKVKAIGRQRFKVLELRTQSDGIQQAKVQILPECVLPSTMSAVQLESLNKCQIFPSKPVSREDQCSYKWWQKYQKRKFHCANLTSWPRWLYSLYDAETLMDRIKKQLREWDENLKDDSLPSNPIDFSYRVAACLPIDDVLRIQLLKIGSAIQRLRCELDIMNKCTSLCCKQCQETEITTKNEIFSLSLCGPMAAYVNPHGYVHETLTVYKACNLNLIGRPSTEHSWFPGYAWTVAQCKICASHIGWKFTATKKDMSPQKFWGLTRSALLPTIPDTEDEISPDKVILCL
CRBN-DDB1, sequence (Q16531 whole entry partner): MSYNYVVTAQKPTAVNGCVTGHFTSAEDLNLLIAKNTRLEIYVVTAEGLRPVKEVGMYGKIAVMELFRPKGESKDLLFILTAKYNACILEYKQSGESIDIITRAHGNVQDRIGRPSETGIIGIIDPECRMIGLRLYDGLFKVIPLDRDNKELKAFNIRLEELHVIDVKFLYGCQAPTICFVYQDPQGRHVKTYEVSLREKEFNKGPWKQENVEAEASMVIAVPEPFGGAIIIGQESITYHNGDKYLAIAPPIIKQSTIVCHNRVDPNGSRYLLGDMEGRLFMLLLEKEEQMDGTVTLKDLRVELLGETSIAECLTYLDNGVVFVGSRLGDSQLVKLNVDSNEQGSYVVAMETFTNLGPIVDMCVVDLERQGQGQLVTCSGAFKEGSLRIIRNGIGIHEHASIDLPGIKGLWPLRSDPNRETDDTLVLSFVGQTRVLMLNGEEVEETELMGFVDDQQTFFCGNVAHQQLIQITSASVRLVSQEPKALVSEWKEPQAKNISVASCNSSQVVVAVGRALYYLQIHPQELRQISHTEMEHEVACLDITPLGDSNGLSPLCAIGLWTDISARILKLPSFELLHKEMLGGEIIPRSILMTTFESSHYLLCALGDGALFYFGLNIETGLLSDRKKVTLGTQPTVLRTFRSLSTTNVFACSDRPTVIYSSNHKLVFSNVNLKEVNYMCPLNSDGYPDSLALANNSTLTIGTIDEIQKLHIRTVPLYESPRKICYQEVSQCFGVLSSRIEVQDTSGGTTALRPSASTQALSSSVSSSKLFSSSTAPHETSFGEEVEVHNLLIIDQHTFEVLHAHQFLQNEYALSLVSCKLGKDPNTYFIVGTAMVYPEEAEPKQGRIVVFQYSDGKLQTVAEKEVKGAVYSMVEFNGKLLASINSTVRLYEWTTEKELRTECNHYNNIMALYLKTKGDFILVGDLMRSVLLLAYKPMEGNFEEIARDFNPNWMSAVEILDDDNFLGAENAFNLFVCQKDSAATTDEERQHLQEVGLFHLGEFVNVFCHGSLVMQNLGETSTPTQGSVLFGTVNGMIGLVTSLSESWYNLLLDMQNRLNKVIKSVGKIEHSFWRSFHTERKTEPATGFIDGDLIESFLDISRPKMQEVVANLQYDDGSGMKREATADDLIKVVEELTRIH
His-tagged CRBN-DDB1 complex, sequence (Q96SW2 whole entry): as the sequence (Q96SW2 whole entry) above
His-tagged CRBN-DDB1 complex, sequence (Q16531 whole entry partner): as the sequence (Q16531 whole entry partner) above

Compound | IC50 [1] [µM] | IC50 (CRBN-DDB1) [µM]
O=C1NC(=O)c2c(Br)cccc21 [Compound I-29, 4-bromo-2H-isoindole-1,3-dione] | > 100 | > 100
NCc1cccc2c1C(=O)NC(=O)C2 [Compound I-68] | 10 to 30 | 10 to 30
O=C1Cc2cccc(Oc3cccc4ccccc34)c2C(=O)N1 [Compound I-275] | 10 to 30 | 10 to 30
NCCCC#Cc1ccc(Oc2cccc3c2C(=O)NC(=O)C3=O)cc1 [Compound I-264] | < 10 | 10 to 30
O=c1[nH]c(=O)c2cc(Br)ccc2o1 [Compound I-53, 6-Bromo-3H-1,3-benzoxazine-2,4-dione] | > 100 | > 100
CC(C)(C)OC(=O)NCCCCCCCCCc1cccc(Oc2cccc3c2C(=O)NC(=O)C3)c1 [Compound I-226] | > 100 | > 100
CC(=O)Nc1ccc2c(c1)C(=O)NC(=O)C2 [Compound I-21] | 30 to 100 | 10 to 30
Cc1ccc2c(c1)CC(=O)NC2=O [Compound I-79] | 30 to 100 | > 100
CC(C)(C)OC(=O)NCCCC#Cc1ccc(Oc2cccc3c2C(=O)NC(=O)C3=O)cc1 [Compound I-239] | < 10 | < 10
CC(C)(C)OC(=O)NCCCc1cccc(Oc2cccc3c2C(=O)NC(=O)C3)c1 [Compound I-220] | 10 to 30 | 30 to 100
O=C1Cc2cnn(Cc3ccccc3)c2C(=O)N1 [Compound I-257] | > 100 | > 100
Nc1cccc2c1C(=O)NC(=O)C2(F)F [Compound I-71, 8-Amino-4,4-difluoro-2H-isoquinoline-1,3-dione] | < 10 | < 10
Nc1ccc2c(c1)CC(=O)NC2=O [Compound I-77] | 10 to 30 | 10 to 30
N#Cc1ccccc1-c1cccc2c1C(=O)NC(=O)C2 [Compound I-52, 2-(1,3-Dioxo-2,4-dihydroisoquinolin-8-yl)benzonitrile] | 30 to 100 | 30 to 100
CCOC(=O)c1cccc(N2C[C@@H]3C(=O)NC(=O)[C@@H]3C2)c1 [Compound I-133] | 10 to 30 | > 100
CC(C)(C)OC(=O)NCCCC#Cc1cccc(Oc2cccc3c2C(=O)NC(=O)C3)c1 [Compound I-221] | < 10 | > 100
O=C1NC(=O)C2(CC2)c2cccc(Br)c21 [Compound I-58, 8′-Bromo-2′H-spiro[cyclopropane-1,4′-isoquinoline]-1′,3′-dione] | > 100 | > 100
O=C1NC(=O)C(F)(F)c2cccc(Br)c21 [Compound I-49] | > 100 | > 100

Compound | IC50 [1] [µM] | IC50 (CRBN-DDB1) [µM]
NCCCCCc1ccc(Oc2cccc3c2C(=O)NC(=O)C3)cc1 [Compound I-249] | 10 to 30 | 10 to 30
O=C1Cc2cccc(C(=O)N3CCOc4ccccc43)c2C(=O)N1 [Compound I-3, 8-(2,3-Dihydro-1,4-benzoxazine-4-carbonyl)-2,4-dihydroisoquinoline-1,3-dione] | > 100 | 30 to 100
CC(C)(C)OC(=O)NCc1cccc(Oc2cccc3c2C(=O)NC(=O)C3)c1 [Compound I-273] | 10 to 30 | 10 to 30
CC(C)(C)OC(=O)NCCCCCCCCCc1ccc(Oc2cccc3c2C(=O)NC(=O)C3=O)cc1 [Compound I-241] | < 10 | 30 to 100
NCCCCCc1ccccc1Oc1cccc2c1C(=O)NC(=O)C2 [Compound I-254] | 10 to 30 | 30 to 100
NCCCC#Cc1cccc(Oc2cccc3c2C(=O)NC(=O)C3)c1 [Compound I-245] | < 10 | 10 to 30
O=c1[nH]c(=O)c2c(Br)cccc2o1 [Compound I-54, 5-Bromo-3H-1,3-benzoxazine-2,4-dione] | > 100 | > 100
O=C1Cc2cccc(Cc3ccccc3)c2C(=O)N1 [Compound I-258] | > 100 | 30 to 100
CC(C)(C)OC(=O)NCCCCCCCCCc1ccccc1Oc1cccc2c1C(=O)NC(=O)C2 [Compound I-218] | > 100 | > 100
CC(C)(C)OC(=O)NCCCCCCCc1ccccc1Oc1cccc2c1C(=O)NC(=O)C2=O [Compound I-252] | 10 to 30 | 30 to 100
O=C1Cc2cccc(C(=O)N3CCc4ccccc43)c2C(=O)N1 [Compound I-1, 8-(2,3-Dihydroindole-1-carbonyl)-2,4-dihydroisoquinoline-1,3-dione] | > 100 | 10 to 30
O=C1Cc2cccc(Oc3ccccc3Cl)c2C(=O)N1 [Compound I-202, 8-(2-Chlorophenoxy)-2,4-dihydroisoquinoline-1,3-dione] | < 10 | < 10
NC(=O)c1ccc2c(c1)C(=O)NC(=O)C2 [Compound I-20, 1,3-dioxo-2,4-dihydroisoquinoline-7-carboxamide] | 30 to 100 | > 100
CC(C)(C)OC(=O)NCCCCCC#Cc1ccc(Oc2cccc3c2C(=O)NC(=O)C3)cc1 [Compound I-230] | > 100 | > 100
O=C1Cc2ccc(F)cc2C(=O)N1 [Compound I-74, 7-Fluoro-2,4-dihydroisoquinoline-1,3-dione] | 30 to 100 | 30 to 100
CC(C)(C)OC(=O)NCCCCCCCC#Cc1ccc(Oc2cccc3c2C(=O)NC(=O)C3)cc1 [Compound I-232] | > 100 | > 100
O=C1Cc2cccc(C(=O)N(Cc3ccccc3)Cc3ccccc3)c2C(=O)N1 [Compound I-208] |  | 10 to 30
Cc1ccccc1-c1cccc2c1C(=O)NC(=O)C2 [Compound I-24] |  | 10 to 30

The remaining lines, values ahead:

IC50 [1] [µM] | IC50 (CRBN-DDB1) [µM] | Compound
10 to 30 | 10 to 30 | O=C1Cc2cccc(CNc3ccccc3)c2C(=O)N1 [Compound I-278]
< 10 | < 10 | NCCCCCCCCCc1ccc(Oc2cccc3c2C(=O)NC(=O)C3)cc1 [Compound I-251]
> 100 | > 100 | Nc1ccc2c(c1)C1(CC(=O)NC1=O)NC2=O (stereo not shown) [Compound I-175]
30 to 100 | 30 to 100 | O=C1NC(=O)c2cc(Oc3ccccc3)ccc2C1=O [Compound I-238]
10 to 30 | > 100 | Cc1cccc(CN2C[C@@H]3C(=O)NC(=O)[C@@H]3C2)n1 [Compound I-292]
30 to 100 | 30 to 100 | O=C1Cc2cccc(Oc3cccc4ccncc34)c2C(=O)N1 [Compound I-274]
30 to 100 | > 100 | Cc1ccccc1-c1cccc2c1C(=O)NC2=O [Compound I-31, 4-(2-methylphenyl)-2H-isoindole-1,3-dione]
< 10 | 30 to 100 | CC(C)(C)OC(=O)NCCCCCCCC#Cc1ccccc1Oc1cccc2c1C(=O)NC(=O)C2=O [Compound I-243]
< 10 | > 100 | CC(C)(C)OC(=O)NCCCCCCCc1cccc(Oc2cccc3c2C(=O)NC(=O)C3)c1 [Compound I-224]
10 to 30 | 30 to 100 | CC(=O)Nc1cccc2c1C(=O)NC(=O)C2 [Compound I-42]
> 100 | 10 to 30 | O=C1Cc2cccc(Oc3ccccn3)c2C(=O)N1 [Compound I-259]
< 10 | 10 to 30 | CC(C)(C)OC(=O)NCCCCCCCC#Cc1cccc(Oc2cccc3c2C(=O)NC(=O)C3=O)c1 [Compound I-237]
10 to 30 | < 10 | Cc1ccccc1Oc1cccc2c1C(=O)NC(=O)C2=O [Compound I-253]
30 to 100 | 30 to 100 | CC(C)(C)OC(=O)NCCCCCc1cccc(Oc2cccc3c2C(=O)NC(=O)C3)c1 [Compound I-222]
> 100 | 10 to 30 | Nc1cccc2c1C(=O)NC(=O)C2 [Compound I-22, 8-Amino-2,4-dihydroisoquinoline-1,3-dione]
30 to 100 | > 100 | O=C1NC(=O)[C@@H]2CN(Cc3ccc(-c4ccccc4)cc3)C[C@H]12 [Compound I-319]
> 100 | > 100 | CC(C)(C)OC(=O)NCCCCCCCC#Cc1cccc(Oc2cccc3c2C(=O)NC(=O)C3)c1 [Compound I-225]
> 100 | > 100 | CC(C)(C)OC(=O)NCCCC#Cc1ccc(Oc2cccc3c2C(=O)NC(=O)C3)cc1 [Compound I-228]
30 to 100 | 30 to 100 | O=C1Cc2cccc(Nc3ccccc3)c2C(=O)N1 [Compound I-27, 8-(Phenylamino)-2,4-dihydroisoquinoline-1,3-dione]
> 100 | > 100 | O=C1CC2(CCc3ccccc32)C(=O)N1 (stereo not shown) [Compound I-185]
< 10 | < 10 | CC(C)(C)OC(=O)NCCCCCC#Cc1cccc(Oc2cccc3c2C(=O)NC(=O)C3=O)c1 [Compound I-234]
> 100 | 30 to 100 | COc1ccccc1-c1ccc2c(c1)C(=O)NC(=O)C2 [Compound I-18, 7-(2-Methoxyphenyl)-2,4-dihydroisoquinoline-1,3-dione]
 | < 10 | O=C1Cc2cccc(Oc3ccc(Br)cc3)c2C(=O)N1 [Compound I-206, 8-(4-Bromophenoxy)-2,4-dihydroisoquinoline-1,3-dione]

From patent US20220281831A1, “FUSED-GLUTARIMIDE CRBN LIGANDS AND USES THEREOF” (Kymera Therapeutics, Inc., priority 2019, published 2022)
